Patent US20230015541A1, “16% Sodium Citrate Solution for Use as an Antimicrobial Catheter Lock Solution” (Becton, Dickinson and Company, priority 2021, published 2023)

How the values were obtained:
[1] = test system: S. aureus (Gram-positive bacteria); experiment: Growth inhibition timeframe at various concentrations of sodium citrate; format: cell-based, Staphylococcus aureus; details: through 24 hours; for growth of S. aureus: pH 6.4-7.5
Experimental: FIG. 3 is a table showing growth inhibition timeframe of Gram-positive Staphylococcus aureus exposed to various concentrations of sodium citrate.
(§1) In vitro testing was conducted with various concentrations of sodium citrate on S. aureus (Gram-positive bacteria) (FIG. 3), P. aeruginosa (Gram-negative bacteria) (FIG. 4), and yeast, C. albicans (FIG. 5). Testing was conducted as set forth in ‘Methods for Dilution Antimicrobial Susceptibility Tests for Bacteria That Grow Aerobically,’ 11th Edition, Clinical and Laboratory Standards Institute (2018), ‘Methods for Determining Bactericidal Activity of Antimicrobial Agents' Approved Guideline.’ Vol. 12, No. 9, Clinical and Laboratory Standards Institute (1999), and ‘Development of In Vitro Susceptibility Testing Criteria and Quality Control Parameters; Approved Guideline-Second Edition,’ Vol. 21, No. 7, Clinical and Laboratory Standards Institute (2001). Briefly, trisodium citrate salt was compounded using purified water and the pH was adjusted, if necessary, with hydrochloric acid to provide a composition with a pH between 6.4 and 7.5. […] Due to this, it is expected that growth inhibition and possibly eradication can occur beyond 24 hours.

[2] = test system: yeast, C. albicans; experiment: as above; format: cell-based, Candida albicans; details: through 24 hours, pH 6.4-7.5
Experimental: FIG. 5 is a table showing growth inhibition timeframe of the fungus Candida albicans exposed to various concentrations of sodium citrate.
as §1

[3] = test system: whole human blood; experiment: Anticoagulation effect in vitro as activated clotting time (ACT), Sonoclot analyzer; format: cell-based; details: 4% (w/v), versus controls (no solution and saline)
Experimental: The anticoagulation effect of a 4% sodium citrate lock solution was measured in vitro as activated clotting time (ACT) using whole human blood over 2 years. The anticoagulation effectiveness of 4% sodium citrate lock solution on whole blood was determined using the Sonoclot® Coagulation & Platelet Function Analyzer (Sienco Inc., Boulder Colo.), which can calculate the onset of clot formation by monitoring mechanical changes that occur in blood samples during hemostasis. The mechanism is a tubular probe that moves up and down within a blood sample. As the sample progresses through various stages of clotting, electronic circuitry (a transducer) detects increasing resistance. This produces a series of electronic signals that are processed by a microcomputer. The output is the total time of clot formation where the blood is more viscous than initially introduced.

[4] = test system: Gram-negative bacteria; experiment: MIC determination of sodium citrate by broth microdilution; format: cell-based; details: 16% w/v sodium citrate, pH 6.4-7.5; concluded from MICs of FIGS. 2A and 2B
Experimental: (§2) In vitro testing was conducted with sodium citrate on samples of various microorganisms to determine a minimum inhibitory concentration (MIC) of sodium citrate (at pH 6.4-7.5) for those microorganisms. […] Testing was performed as set forth in ‘Methods for Dilution Antimicrobial Susceptibility Tests for Bacteria That Grow Aerobically,’ 11th Edition, Clinical and Laboratory Standards Institute (2018), ‘Methods for Determining Bactericidal Activity of Antimicrobial Agents' Approved Guideline.’ Vol. 12, No. 9, Clinical and Laboratory Standards Institute (1999), and ‘Development of In Vitro Susceptibility Testing Criteria and Quality Control Parameters; Approved Guideline-Second Edition,’ Vol. 21, No. 7, Clinical and Laboratory Standards Institute (2001).
(§3) For MIC determinations, sodium citrate was reconstituted and diluted to various working stock concentrations (8%, 10%, 12%, 14%, 16%, 20%, 24%, and 28% in deionized water and transferred into round-bottom 96-well microdilution plates. Three strains each of Gram-positive bacteria, Gram-negative bacteria, and yeast were obtained from the American Tissue Type Collection (ATCC) or the Centers for Disease Control Antibiotic Resistant (CDC AR) Isolate Bank. Cultures were grown on Trypticase Soy Agar (TSA, for bacteria) or Sabouraud Dextrose Agar (SDA, for yeast) and suspended in Mueller Hinton Broth to a final cell density of approximately 5×10^5 CFU/mL during exposure to sodium citrate. Following incubation at 35±2° C. for 24±2 h (bacteria) or 44±4 h (yeast), microdilution plates were visually examined for the presence or inhibition of growth.
(§4) As will be appreciated, the MIC is shown, thus testing of higher concentrations was deemed unnecessary, because if, for example 4% sodium citrate is the MIC for a given microorganism, then 16% would be at least as effective. Three (3) replicates were run for each bacteria evaluated and four (4) replicates were run for each fungi evaluated, using two (2) different growth media for the fungi. […]

[5] = test system: yeast; experiment: as above; format: cell-based; details: 16% w/v sodium citrate, pH 6.4-7.5; concluded from MICs of FIGS. 2A and 2B
Experimental: as §2, §3, §4

[6] = test system: Gram-positive bacteria; experiment: as above; format: cell-based; details: 16% w/v sodium citrate, pH 6.4-7.5; concluded from MICs of FIGS. 2A and 2B
Experimental: as §2, §3, §4

[7] = test system: P. aeruginosa (Gram-negative bacteria); experiment: Growth inhibition timeframe at various concentrations of sodium citrate; format: cell-based, Pseudomonas aeruginosa; details: through 24 hours; for growth of P. aeruginosa: pH 6.4-7.5
Experimental: FIG. 4 is a table showing growth inhibition timeframe of Gram-negative Pseudomonas aeruginosa exposed to various concentrations of sodium citrate.
as §1
Due to this, it is expected that growth inhibition and possibly eradication can occur beyond 24 hours.

O=C([O-])CC(O)(CC(=O)[O-])C(=O)[O-].[Na+].[Na+].[Na+] [sodium citrate, trisodium citrate]
bacteria count of S. aureus ([1]; 6% (w/v)): decrease
growth of S. aureus ([1]; 6% (w/v)): does not grow
bacteria count of S. aureus ([1]; 8% (w/v)): decrease
growth of S. aureus ([1]; 8% (w/v)): does not grow
bacteria count of S. aureus ([1]; 10% (w/v)): decrease
growth of S. aureus ([1]; 10% (w/v)): does not grow
growth of C. albicans ([2]; 2% (w/v)): does not grow
growth of C. albicans ([2]; 4% (w/v)): does not grow
growth of C. albicans ([2]; 6% (w/v)): does not grow
time required for clot formation (activated clotting time) [3]: longer relative to the controls
growth and proliferation of Gram-negative bacteria [4]: will prevent growth and proliferation
growth and proliferation of yeast [5]: will prevent growth and proliferation
growth and proliferation of Gram-positive bacteria [6]: will prevent growth and proliferation
bacteria count of P. aeruginosa ([7]; 10% (w/v)): decrease
growth of P. aeruginosa ([7]; 10% (w/v)): does not grow
bacteria count of P. aeruginosa ([7]; 12% (w/v)): decrease
growth of P. aeruginosa ([7]; 12% (w/v)): does not grow
bacteria count of P. aeruginosa ([7]; 14% (w/v)): decrease
growth of P. aeruginosa ([7]; 14% (w/v)): does not grow
